Measurements published in patent US9920010B2, “CXCR7 receptor modulators” (IDORSIA PHARMACEUTICALS LTD, priority 2013, dated 2018).

Target: T1, CXCR7 (Homo sapiens, UniProt P25106)
T1 construct: host or cells: CHO-K1 (PathHunter CHO-K1 CXCR7 b-arrestin cell line, stably transfected)
Experiment: PathHunter CHO-K1 CXCR7 b-arrestin recruitment assay (CXCR7 agonistic activity)
Assay type: cell-based
Conditions: PathHunter CHO-K1 CXCR7 b-arrestin cell line
Outline: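 Stable CHO-K1 line with C-terminally ProLink-tagged CXCR7 and β-arrestin 2–EA fusion; β-arrestin recruitment restores β-gal activity, read by chemiluminescence after 1 h RT detection. Cells seeded 24 h, starved in OPTIMEM 3–4 h, exposed to compounds 90 min at 37 °C in HBSS/HEPES/BSA. Geometric-mean EC50 from repeated measurements.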

T1 sequence (P25106 whole entry): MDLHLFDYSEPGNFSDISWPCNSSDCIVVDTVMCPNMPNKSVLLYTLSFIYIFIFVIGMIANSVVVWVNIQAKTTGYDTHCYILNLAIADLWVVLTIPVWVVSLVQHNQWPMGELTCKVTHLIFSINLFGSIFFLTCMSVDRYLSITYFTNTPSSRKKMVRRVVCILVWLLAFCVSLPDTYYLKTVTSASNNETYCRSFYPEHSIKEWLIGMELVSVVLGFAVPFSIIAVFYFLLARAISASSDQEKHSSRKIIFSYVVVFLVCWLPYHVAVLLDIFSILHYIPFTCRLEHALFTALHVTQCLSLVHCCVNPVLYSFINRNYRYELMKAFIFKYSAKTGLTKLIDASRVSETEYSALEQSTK
T1 sequence (P32121 whole entry partner): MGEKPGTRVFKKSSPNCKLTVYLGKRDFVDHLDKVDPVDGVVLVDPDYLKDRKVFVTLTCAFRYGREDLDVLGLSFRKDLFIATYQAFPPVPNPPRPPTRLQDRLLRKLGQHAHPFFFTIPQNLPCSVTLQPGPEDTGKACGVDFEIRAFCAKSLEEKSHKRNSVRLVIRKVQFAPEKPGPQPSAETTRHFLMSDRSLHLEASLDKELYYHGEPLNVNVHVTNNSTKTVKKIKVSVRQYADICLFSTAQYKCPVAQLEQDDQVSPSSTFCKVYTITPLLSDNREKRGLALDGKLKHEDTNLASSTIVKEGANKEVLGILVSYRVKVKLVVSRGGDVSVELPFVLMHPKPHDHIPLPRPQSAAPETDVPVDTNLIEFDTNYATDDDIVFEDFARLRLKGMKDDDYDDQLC

Compound | EC50
CNCCN(Cc1ccccc1C(F)(F)F)C(=O)CNc1cccc2c1CCN(C(C)=O)C2 [compound 445, 2-(2-Acetyl-1,2,3,4-tetrahydro-isoquinolin-5-ylamino)-N-(2-methylamino-ethyl)-N-(2-trifluoromethyl-benzyl)-acetamide] | 11 nM
O=C(CNc1cccc2c1CCN(CC1CC1)C2)N(CCN1CCC(F)(F)CC1)Cc1ccccc1Cl [Example 248, N-(2-Chloro-benzyl)-2-(2-cyclopropylmethyl-1,2,3,4-tetrahydro-isoquinolin-5-ylamino)-N-[2-(4,4-difluoro-piperidin-1-yl)-ethyl]-acetamide] | 32 nM
CN(C)CCN(Cc1ccncn1)C(=O)CNc1cccc2c1CCN(CC1CC1)C2 [Example 255, 2-(2-Cyclopropylmethyl-1,2,3,4-tetrahydro-isoquinolin-5-ylamino)-N-(2-dimethylamino-ethyl)-N-pyrimidin-4-ylmethyl-acetamide] | 390 nM
COCCN1CCc2c(CCC(=O)N(Cc3ccccc3C(F)(F)F)CC(O)COC)cccc2C1 (stereo not drawn) [Example 339, N-(2-Hydroxy-3-methoxy-propyl)-3-[2-(2-methoxy-ethyl)-1,2,3,4-tetrahydro-isoquinolin-5-yl]-N-(2-trifluoromethyl-benzyl)-propionamide] | 457 nM
CC(C)C(C)N1CCc2c(cccc2NCC(=O)N(CCN(C)C)Cc2ccccc2C(F)(F)F)C1 (racemic) [Example 355, rac-N-(2-Dimethylamino-ethyl)-2-[2-(1,2-dimethyl-propyl)-1,2,3,4-tetrahydro-isoquinolin-5-ylamino]-N-(2-trifluoromethyl-benzyl)-acetamide] | 10 nM
2-(2-Cyclopropylmethyl-1,2,3,4-tetrahydro-isoquinolin-5-ylamino)-N-(2-dimethylamino-ethyl)-N-pyridin-3-ylmethyl-acetamide [Example 263] | 127 nM
CCN1CCc2c(cccc2OCC(=O)N(CCN(C)C)Cc2ccccc2C(F)(F)F)C1 [compound 173, N-(2-Dimethylamino-ethyl)-2-(2-ethyl-1,2,3,4-tetrahydro-isoquinolin-5-yloxy)-N-(2-trifluoromethyl-benzyl)-acetamide] | 5 nM
COCCN1CCc2c(CCC(=O)N(CCC(C)(C)O)Cc3ccccc3C(F)(F)F)cccc2C1 [Example 344, N-(3-Hydroxy-3-methyl-butyl)-3-[2-(2-methoxy-ethyl)-1,2,3,4-tetrahydro-isoquinolin-5-yl]-N-(2-trifluoromethyl-benzyl)-propionamide] | 438 nM
CCC(=O)N1CCc2c(cccc2OCC(=O)N(CCN(C)C)Cc2ccccc2)C1 [compound 169, N-Benzyl-N-(2-dimethylamino-ethyl)-2-(2-propionyl-1,2,3,4-tetrahydro-isoquinolin-5-yloxy)-acetamide] | 42 nM
CN(C)CCN(Cc1ncccn1)C(=O)CNc1cccc2c1CCN(CC1CC1)C2 [Example 260, 2-(2-Cyclopropylmethyl-1,2,3,4-tetrahydro-isoquinolin-5-ylamino)-N-(2-dimethylamino-ethyl)-N-pyrimidin-2-ylmethyl-acetamide] | 125 nM
CC(C)(O)CN(Cc1ncccc1Br)C(=O)CNc1cccc2c1CN(C1CCC1)CC2 [compound 458] | 109 nM
CCC(=O)N1CCc2c(cccc2NCC(=O)N(CCN(C)C)Cc2cccc(OC)c2)C1 [Example 29, N-(2-Dimethylamino-ethyl)-N-(3-methoxy-benzyl)-2-(2-propionyl-1,2,3,4-tetrahydro-isoquinolin-5-ylamino)-acetamide] | 174 nM
CNCCN(Cc1ccccc1C(F)(F)F)C(=O)CNc1cccc2c1CCN(C(=O)C(C)C)C2 [compound 387, 2-(2-Isobutyryl-1,2,3,4-tetrahydro-isoquinolin-5-ylamino)-N-(2-methylamino-ethyl)-N-(2-trifluoromethyl-benzyl)-acetamide] | 12 nM
CN(C)CCN(Cc1ncccc1Cl)C(=O)/C=C/c1cccc2c1CCN(C(=O)[C@H]1C[C@H]1F)C2 (racemic) [Example 330, rac-(E)-N-(3-Chloro-pyridin-2-ylmethyl)-N-(2-dimethylamino-ethyl)-3-[2-((1R*,2R*)-2-fluoro-cyclopropanecarbonyl)-1,2,3,4-tetrahydro-isoquinolin-5-yl]-acrylamide] | 11 nM

The remaining compounds from weak to strong by EC50, led by results:

EC50 | Compound
397 nM | COCCN1CCc2c(CCC(=O)N(Cc3ccccc3C(F)(F)F)CC(C)(C)O)cccc2C1 [Example 341, N-(2-Hydroxy-2-methyl-propyl)-3-[2-(2-methoxy-ethyl)-1,2,3,4-tetrahydro-isoquinolin-5-yl]-N-(2-trifluoromethyl-benzyl)-propionamide]
255 nM | CN(C)CCN(Cc1ccccc1C(F)(F)F)C(=O)CNc1cccc2c1CN(CC1CC1)CC2(C)C [compound 199]
224 nM | CN(C)CCN(Cc1ccccc1Cl)C(=O)CCc1cccc2c1CCN(C(=O)OC(C)(C)C)C2 [Example 98, 5-{2-[(2-Chloro-benzyl)-(2-dimethylamino-ethyl)-carbamoyl]-ethyl}-3,4-dihydro-1H-isoquinoline-2-carboxylic acid tert-butyl ester]
110 nM | COC(=O)N1CCc2cccc(NCC(=O)N(CCN(C)C)Cc3ccccc3)c2C1 [Example 190, 8-({[Benzyl-(2-dimethylamino-ethyl)-carbamoyl]-methyl}-amino)-3,4-dihydro-1H-isoquinoline-2-carboxylic acid methyl ester]
110 nM | CNCCN(Cc1ccccc1C(F)(F)F)C(=O)CNc1cccc2c1CCN(C(=O)CC(C)(C)C)C2 [compound 393]
102 nM | CN(C)CCN(Cc1ccc(OC(F)(F)F)cc1)C(=O)CNc1cccc2c1CN(CC1CC1)CC2 [compound 473]
74 nM | CNCCN(Cc1ncccc1C(F)(F)F)C(=O)CNc1cccc2c1CCN(C(=O)OCC(C)C)C2 [compound 426]
48 nM | CN(C)CCN(Cc1nccs1)C(=O)CNc1cccc2c1CCN(CC1CC1)C2 [Example 265, 2-(2-Cyclopropylmethyl-1,2,3,4-tetrahydro-isoquinolin-5-ylamino)-N-(2-dimethylamino-ethyl)-N-thiazol-2-ylmethyl-acetamide]
43 nM | O=C(CNc1cccc2c1CCN(CC1CC1)C2)N(CCN1CCCC(F)(F)C1)Cc1ccccc1C(F)(F)F [Example 281, 2-(2-Cyclopropylmethyl-1,2,3,4-tetrahydro-isoquinolin-5-ylamino)-N-[2-(3,3-difluoro-piperidin-1-yl)-ethyl]-N-(2-trifluoromethyl-benzyl)-acetamide]
39 nM | C=CCN1CCc2cccc(NCC(=O)N(CCN(C)CCF)Cc3ccccc3C(F)(F)F)c2C1 [compound 465, 2-(2-Allyl-1,2,3,4-tetrahydro-isoquinolin-8-ylamino)-N-{2-[(2-fluoro-ethyl)-methyl-amino]-ethyl}-N-(2-trifluoromethyl-benzyl)-acetamide]
39 nM | COCCN1CCc2c(cccc2NCC(=O)N(CCN(C)C)Cc2ncccc2Cl)C1 [Example 306, N-(3-Chloro-pyridin-2-ylmethyl)-N-(2-dimethylamino-ethyl)-2-[2-(2-methoxy-ethyl)-1,2,3,4-tetrahydro-isoquinolin-5-ylamino]-acetamide]
29 nM | O=C(CNc1cccc2c1CCN(CC1CC1)C2)N(Cc1cncs1)Cc1ccccc1C(F)(F)F [Example 247, 2-(2-Cyclopropylmethyl-1,2,3,4-tetrahydro-isoquinolin-5-ylamino)-N-thiazol-5-ylmethyl-N-(2-trifluoromethyl-benzyl)-acetamide]
29 nM | CN(C)CCN(Cc1ccccn1)C(=O)CNc1cccc2c1CCN(CC1CC1)C2 [Example 257, 2-(2-Cyclopropylmethyl-1,2,3,4-tetrahydro-isoquinolin-5-ylamino)-N-(2-dimethylamino-ethyl)-N-pyridin-2-ylmethyl-acetamide]
15 nM | O=C(CNc1cccc2c1CCN(CC1CC1)C2)N(Cc1ccccc1C(F)(F)F)C1CCNCC1 [compound 440, 2-(2-Cyclopropylmethyl-1,2,3,4-tetrahydro-isoquinolin-5-ylamino)-N-piperidin-4-yl-N-(2-trifluoromethyl-benzyl)-acetamide]
14 nM | C#CCN(C)CCN(Cc1ccccc1C(F)(F)F)C(=O)CNc1cccc2c1CCN(CC1CC1)C2 [Example 246, 2-(2-Cyclopropylmethyl-1,2,3,4-tetrahydro-isoquinolin-5-ylamino)-N-[2-(methyl-prop-2-ynyl-amino)-ethyl]-N-(2-trifluoromethyl-benzyl)-acetamide]
8 nM | CN(C)CCN(Cc1ccccc1C(F)(F)F)C(=O)CNc1cccc2c1CN(C(=O)N(C)C)CC2 [Example 546, 8-({[(2-Dimethylamino-ethyl)-(2-trifluoromethyl-benzyl)-carbamoyl]-methyl}-amino)-3,4-dihydro-1H-isoquinoline-2-carboxylic acid dimethylamide]
7 nM | CN(C)CCN(Cc1c(F)cccc1F)C(=O)CNc1cccc2c1CCN(CC1CC1)C2 [Example 270, 2-(2-Cyclopropylmethyl-1,2,3,4-tetrahydro-isoquinolin-5-ylamino)-N-(2,6-difluoro-benzyl)-N-(2-dimethylamino-ethyl)-acetamide]
6 nM | CN(C)CCN(Cc1ccccc1C(F)(F)F)C(=O)CNc1cccc2c1CCN(C(=O)[C@H]1C[C@H]1F)C2 (single isomer, unassigned) [Example 363a, N-(2-Dimethylamino-ethyl)-2-[2-((1R*,2R*)-2-fluoro-cyclopropanecarbonyl)-1,2,3,4-tetrahydro-isoquinolin-5-ylamino]-N-(2-trifluoromethyl-benzyl)-acetamide]
5 nM | CNCCN(Cc1ncccc1C(F)(F)F)C(=O)CNc1cccc2c1CCN(CC1CC1)C2 [compound 437, 2-(2-Cyclopropylmethyl-1,2,3,4-tetrahydro-isoquinolin-5-ylamino)-N-(2-methylamino-ethyl)-N-(3-trifluoromethyl-pyridin-2-ylmethyl)-acetamide]
